Measured values published in ChEMBL document CHEMBL1146890, “Arylaminoethyl carbamates as a novel series of potent and selective cathepsin S inhibitors” (Bioorg Med Chem Lett, 2006).

Key:
Assay type in all cases: ADME, organism-based
[1] = Oral bioavailability in Wistar rat at 10 mg/kg, po; settings: in vivo
[2] = Cmax in Wistar rat at 10 mg/kg, po; set-up: dose 10 mg/kg, route oral; settings: in vivo
[3] = Half life in Wistar rat at 3 mg/kg, iv; set-up: dose 3 mg/kg, route intravenous; settings: in vivo
[4] = Clearance in Wistar rat at 3 mg/kg, iv; set-up: dose 3 mg/kg, route intravenous; settings: in vivo
[5] = Volume of distribution in Wistar rat at 3 mg/kg, iv; set-up: dose 3 mg/kg, route intravenous; settings: in vivo, read-out: Vdss
[6] = Half life in Wistar rat at 10 mg/kg, po; set-up: dose 10 mg/kg, route oral; settings: in vivo
[7] = AUC in Wistar rat at 10 mg/kg, po; set-up: dose 10 mg/kg, route oral; settings: plasma

SMILES: C[C@@H](CN1c2ccc(F)cc2CC1(C)C)NC(=O)O[C@@H](CC1CCCCC1)C(=O)N1CCOCC1
- bioavailability [1]: 23%
- Cmax [2]: 513 nM
- half-life [3]: 82 min
- clearance [4]: 52 mL/min/kg
- Vd [5]: 3.1 L/kg
- half-life [6]: 62 min
- AUC [7]: 733 ng·h/mL

SMILES: C[C@@H](CN1CC(C)(C)c2cc(F)ccc21)NC(=O)[C@H](CC1CCCCC1)NC(=O)N1CCOCC1
- bioavailability [1]: 4%
- Cmax [2]: 118 nM
- half-life [3]: 43 min
- clearance [4]: 52 mL/min/kg
- Vd [5]: 1.76 L/kg
- half-life [6]: 51 min
- AUC [7]: 133 ng·h/mL

SMILES: C[C@@H](CN1CC(C)(C)c2cc(F)ccc21)NC(=O)O[C@@H](CC1CCCCC1)C(=O)N1CCOCC1
- bioavailability [1]: 42%
- Cmax [2]: 774 nM
- half-life [3]: 100 min
- clearance [4]: 52 mL/min/kg
- Vd [5]: 4.1 L/kg
- half-life [6]: 69 min
- AUC [7]: 1350 ng·h/mL
